Data reported in patent US10087144B2, “Agents for use in the treatment of cardiovascular and inflammatory diseases structurally based on 4(1 H)-quinolone” (UCL Business PLC, priority 2015, dated 2018).
Like-named read-outs stand apart in the source and are kept apart here.

How the values were obtained:
[1] = tested on: rat mesenteric artery smooth muscle cells; assay: Ca2+ flux in response to Angiotensin II in isolated rat mesenteric artery smooth muscle cells (FLIPR); type: cell-based; conditions: for inhibition at 1 µM / inhibition at 10 µM: Rattus norvegicus; for inhibition at 1 µM: read-out: % inhibition 1 μM; for inhibition at 10 µM: read-out: % inhibition 10 μM
Description: Mesenteric artery smooth muscle cells were isolated from male Sprague-Dawley rats (200-250 g). Mesenteric arteries were dissected, cleared of extraneous tissue and incubated in an enzyme solution containing collagenase type I (1 mg/ml), soybean trypsin inhibitor (0.25 mg/ml), bovine albumin (1 mg/ml), CaCl2 (0.2 mM), 100 U/ml penicillin (100 U/ml) and streptomycin (100 μg/ml) in a humidified incubator with 5% CO2 in air. The enzyme solution was replenished at 30 min intervals and cells were pelleted by centrifugation (200 g, 5 min) and differentially plated (×2) for 15 min in Dulbecco's Modified Eagle's Medium (DMEM) supplemented with penicillin (100 U/ml), streptomycin (100 μg/ml), L-Glutamine (2 mM) and 10% heat inactivated New Zealand foetal calf serum. Cells were passaged by trypsinisation and viability determined by trypan blue exclusion.
Measurements of Ca^2+ flux in response to Angiotensin II were conducted using a Fluorescent Imaging Plate Reader (FLIPR; Molecular Devices). Cells were plated at a density of 10,000 cells/well into black, clear-bottomed 96-well plates in DMEM supplemented with penicillin (100 U/ml), streptomycin (100 μg/ml), L-Glutamine (2 mM) and 10% heat inactivated New Zealand foetal calf serum. 24 hrs later the cells were incubated with Fluo-3-AM (4 μM) for 60 min at 37° C. Once dye-loaded, the cells were washed thoroughly with the proprietary assay buffer to remove any unincorporated dye. The cells were then incubated with varying concentrations of a number of representative NPR-C agonist molecules of the invention, C-type natriuretic peptide or vehicle (DMSO) and placed into the FLIPR. After 15 mins, Angiotensin II (100 nM) was automatically dispensed into each well and the fluorescence signal followed for 5 mins. Potency was determined by comparison of the peak fluorescence in each test well (run in triplicate) with that of the control (Angiotensin II alone). Background fluorescence (assay buffer only) was subtracted from all values.

rat mesenteric arteries = assay: Vasoreactivity in rat mesenteric arteries in vitro (relaxation of U46619-contracted vessels, tension myograph); conditions: for EC50: vasorelaxation, calculated from concentration-response curves
Description: Male rats (Sprague-Dawley; 200-250 g) were stunned and killed by cervical dislocation. The mesentery was removed and third-order arteries mounted in an automated tension myograph (Danish Myotechnology). After an equilibration period of 45 min, vessels were normalized and diameter determined. Following normalization, each vessel was contracted repeatedly with the thromboxane A2-mimetic 9,11-dideoxy-11^α,9^α-epoxymethano-prostaglandin F2α (U46619; 1 μM) until the response was reproducible. The vessels were then washed to restore basal tone before contracting to approximately 50% of the maximum U46619-induced response. Once a stable response to U46619 was achieved, cumulative concentration-response curves were constructed with a variety of NPR-C agonists of the invention at varying concentrations (0.001-30 μM), or vehicle (DMSO). In some studies, concentration-response curves to NPR-C agonists were conducted in the presence of the NPR-C antagonist M372049 (10 μM). Only one curve to any one agonist was constructed in any single tissue.

Human NPR-C = Human NPR-C (Homo sapiens (Human), UniProt P17342); assay: Surface plasmon resonance (SPR) spectroscopy, binding to immobilised human NPR-C; conditions: FIGS. 5, 6 and 7
Description: All SPR analysis was performed on a BIAcore T200 system using series S CM5 sensor chips. Data processing and analysis were performed using BIAevaluation software and Scrubber2. All sensorgrams were double referenced by subtracting the response on a reference flowcell and a blank sample.
Human NPR-C (OriGene, Rockville, USA), was covalently attached to a CM5 chip via amine coupling. A surface density of 2700 RU was used for measurements with natriuretic peptides and the NPR-C antagonist M372049, and a density of 5200 RU for measurements with compound 118. Sequential injections of CNP (0.25, 0.50, 1, 2 & 4 nM) were performed at a flow rate of 30 μL/min for (240 s for each), followed by a dissociation time of 3600 s. Binding site saturation was observed and the surface was regenerated by two injections of 1M NaCl (200 s each). Binding of M372049 (0.94, 1.88, 3.75, 7.5, 15, 30 & 60 nM) and Compound 118 (1.17, 2.34, 4.70, 9.38, 18.75, 37.50, 75 & 150 μM) was analysed by sequential injections (120 s for M372049, 30 s for compound 118) followed by undisturbed dissociation (600 s for M372049, 30 s for compound 118), during which curves returned to baseline. Kinetic parameters were calculated assuming a simple 1:1 (Langmuir) binding.

[2] = 1 μM compound, inhibition of Angiotensin II (100 nM) Ca2+ flux peak fluorescence
[3] = 10 μM compound, inhibition of Angiotensin II (100 nM) Ca2+ flux peak fluorescence
[4] = 1 μM, U46619-contracted third-order arteries
[5] = 3 μM, U46619-contracted third-order arteries
[6] = 10 μM, U46619-contracted third-order arteries
[7] = 30 μM, U46619-contracted third-order arteries

Sequence of Human NPR-C (P17342 27-541): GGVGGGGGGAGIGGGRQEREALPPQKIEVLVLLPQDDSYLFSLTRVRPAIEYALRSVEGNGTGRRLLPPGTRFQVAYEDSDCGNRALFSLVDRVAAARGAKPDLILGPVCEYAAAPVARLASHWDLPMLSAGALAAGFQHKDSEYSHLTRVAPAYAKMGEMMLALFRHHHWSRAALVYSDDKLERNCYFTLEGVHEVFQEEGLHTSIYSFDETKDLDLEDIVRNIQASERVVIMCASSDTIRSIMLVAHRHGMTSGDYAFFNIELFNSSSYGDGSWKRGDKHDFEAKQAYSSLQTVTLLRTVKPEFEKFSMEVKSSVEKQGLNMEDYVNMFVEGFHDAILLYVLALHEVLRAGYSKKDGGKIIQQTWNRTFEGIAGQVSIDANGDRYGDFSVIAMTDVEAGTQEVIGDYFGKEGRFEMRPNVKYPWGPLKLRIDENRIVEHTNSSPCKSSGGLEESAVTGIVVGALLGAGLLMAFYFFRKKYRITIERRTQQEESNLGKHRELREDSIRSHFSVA

| SMILES | % inhibition 1 μM [1, 2] | % inhibition 10 μM [1, 3] | other results |
| --- | --- | --- | --- |
| CC(C)C[C@H](NC(=O)c1cn(Cc2ccccc2)c2ccc(Br)cc2c1=O)C(=O)OC(C)(C)C [Compound 60, (S)-tert-butyl 2-(1-benzyl-6-bromo-4-oxo-1,4-dihydroquinoline-3-carboxamido)-4-methylpentanoate] |  |  | inhibition at 1 µM [1, 2]: 0%; inhibition at 10 µM [1, 3]: 80% |
| CC(C)(C)OC(=O)[C@H](Cc1ccccc1)NC(=O)c1cn(Cc2ccccc2)c2ccc(Br)cc2c1=O [Compound 61, (S)-tert-butyl 2-(1-benzyl-6-bromo-4-oxo-1,4-dihydroquinoline-3-carboxamido)-3-phenylpropanoate] |  |  | inhibition at 1 µM [1, 2]: 27%; inhibition at 10 µM [1, 3]: 100% |
| CC(C)(C)OC(=O)CNC(=O)c1cn(Cc2ccccc2)c2ccc(Br)cc2c1=O [Compound 62] | 0% | 50% |  |
| CC(C)[C@H](NC(=O)c1cn(Cc2ccccc2)c2ccc(Br)cc2c1=O)C(=O)OC(C)(C)C [Compound 63, (S)-tert-butyl 2-(1-benzyl-6-bromo-4-oxo-1,4-dihydroquinoline-3-carboxamido)-3-methylbutanoate] |  |  | inhibition at 1 µM [1, 2]: 58%; inhibition at 10 µM [1, 3]: 100% |
| CCOC(=O)c1c[nH]c2ccccc2c1=O [Compound 84, ethyl 4-oxo-1,4-dihydroquinoline-3-carboxylate] |  |  | inhibition at 1 µM [1]: 40%; inhibition at 10 µM [1]: 45% |
| CCOC(=O)c1cn(Cc2ccccc2)c2ccccc2c1=O [Compound 85, ethyl 1-benzyl-4-oxo-1,4-dihydroquinoline-3-carboxylate] |  |  | inhibition at 1 µM [1, 2]: 0%; inhibition at 10 µM [1, 3]: 97% |
| O=C(O)c1cn(Cc2ccccc2)c2ccccc2c1=O [Compound 86, 1-benzyl-4-oxo-1,4-dihydroquinoline-3-carboxylic acid] |  |  | inhibition at 1 µM [1, 2]: 0%; inhibition at 10 µM [1, 3]: 45% |
| CC(C)(C)OC(=O)CNC(=O)c1cn(Cc2ccccc2)c2ccccc2c1=O [Compound 87, tert-butyl 2-(1-benzyl-4-oxo-1,4-dihydroquinoline-3-carboxamido)acetate] |  |  | inhibition at 1 µM [1, 2]: 0%; inhibition at 10 µM [1, 3]: 67% |
| CC(C)[C@H](NC(=O)c1cn(Cc2ccccc2)c2ccccc2c1=O)C(=O)OC(C)(C)C [Compound 88, (S)-tert-butyl 2-(1-benzyl-4-oxo-1,4-dihydroquinoline-3-carboxamido)-3-methylbutanoate] |  |  | inhibition at 1 µM [1, 2]: 12%; inhibition at 10 µM [1, 3]: 55% |
| CC(C)c1cccc2c(=O)c(C(=O)O)c[nH]c12 [Compound 103] | 0% | 65% |  |
| COc1ccc2[nH]cc(C(=O)O)c(=O)c2c1 [Compound 104] | 0% | 69% |  |
| CC(=O)c1ccc2[nH]cc(C(=O)O)c(=O)c2c1 [Compound 105] | 80% | 100% |  |
| O=C(O)c1ccc2c(=O)c(C(=O)O)c[nH]c2c1 [Compound 106] | 90% | 90% |  |
| Cc1cccc2c(=O)c(C(=O)O)c[nH]c12 [Compound 107] | 15% | 100% |  |
| CN(C)c1ccc2[nH]cc(C(=O)O)c(=O)c2c1 [Compound 108] | 0% | 90% |  |
| O=C(O)c1c[nH]c2c(C(=O)O)cccc2c1=O [Compound 109] | 18% | 100% |  |

| SMILES | % inhibition 1 μM [1, 2] | % inhibition 10 μM [1, 3] | other results |
| --- | --- | --- | --- |
| O=C(O)c1c[nH]c2cc(C(F)(F)F)ccc2c1=O [Compound 110] | 70% | 100% |  |
| O=C(O)c1ccc2[nH]cc(C(=O)O)c(=O)c2c1 [Compound 111] | 100% | 100% |  |
| Cc1ccc2[nH]cc(C(=O)O)c(=O)c2c1 [Compound 112] | 100% | 100% |  |
| O=C(O)c1c[nH]c2ccc(Br)cc2c1=O [Compound 113] | 12% | 100% |  |
| O=C(O)c1c[nH]c2ccc(F)cc2c1=O [Compound 114] | 100% | 100% |  |
| CC(C)C(NC(=O)c1cn(Cc2ccccc2)c2ccccc2c1=O)C(=O)O (stereo not drawn) [Compound 116] | 80% | 100% | % relaxation 1 μM (rat mesenteric arteries; [4]): 4%; % relaxation 3 μM (rat mesenteric arteries; [5]): 0%; % relaxation 10 μM (rat mesenteric arteries; [6]): 0%; % relaxation 30 μM (rat mesenteric arteries; [7]): 9% |
| O=C(O)CNC(=O)c1cn(Cc2ccccc2)c2ccccc2c1=O [Compound 117, 2-(1-benzyl-4-oxo-1,4-dihydroquinoline-3-carboxamido)acetic acid] |  |  | inhibition at 1 µM [1, 2]: 87%; inhibition at 10 µM [1, 3]: 100%; inhibition at 1 µM (rat mesenteric arteries; Rattus norvegicus, 1 μM, U46619-contracted third-order arteries): 0%; inhibition at 3 µM (rat mesenteric arteries; Rattus norvegicus, 3 μM, U46619-contracted third-order arteries): 0%; inhibition at 10 µM (rat mesenteric arteries; Rattus norvegicus, 10 μM, U46619-contracted third-order arteries): 2%; inhibition at 30 µM (rat mesenteric arteries; Rattus norvegicus, 30 μM, U46619-contracted third-order arteries): 42%; EC50 (rat mesenteric arteries; Rattus norvegicus): > 50 µM |
| CC(C)C(NC(=O)c1cn(Cc2ccccc2)c2ccc(Br)cc2c1=O)C(=O)O (stereo not drawn) [Compound 119] | 80% | 100% | % relaxation 1 μM (rat mesenteric arteries; [4]): 2%; % relaxation 3 μM (rat mesenteric arteries; [5]): 5%; % relaxation 10 μM (rat mesenteric arteries; [6]): 26%; % relaxation 30 μM (rat mesenteric arteries; [7]): 94%; EC50 (rat mesenteric arteries): > 50 µM |
| O=C(O)c1cn(C2CC2)c2cc(N3CCNCC3)c(F)cc2c1=O [Compound 134] | 55% | 80% |  |
| CC1COc2c(N3CCN(C)CC3)c(F)cc3c(=O)c(C(=O)O)cn1c23 (stereo not drawn) [Compound 136] | 15% | 20% |  |
| CC1COc2c(N3CCN(C)CC3)c(F)cc3c(=O)c(C(=O)O)cn1c23 (stereo not drawn) [Compound 138] | 11% | 40% |  |
| C[C@@H]1CN(c2c(F)c(N)c3c(=O)c(C(=O)O)cn(C4CC4)c3c2F)C[C@H](C)N1 [Compound 141] | 0% | 28% |  |
| CC1CCc2c(N3CCC(O)CC3)c(F)c(N)c3c(=O)c(C(=O)O)cn1c23 (stereo not drawn) [Compound 142] | 18% | 75% |  |
| CN1CCN(c2cc3c(cc2F)c(=O)c(C(=O)O)cn3-c2ccc(F)cc2)CC1 [Compound 144] | 23% | 40% |  |
| CC[C@H](C)[C@H](NC(=O)[C@@H](CCCN=C(N)N)NC(=O)[C@H](CC(=O)O)NC(=O)[C@H]([C@@H](C)CC)N1CC[C@@H](NC(=O)Cc2ccc(NC(=O)c3cnc4ccccc4n3)cc2)C1=O)C(N)=O [Compound M372049] |  |  | binding to human NPR-C (SPR) (Human NPR-C): binding |
